Data as given in the NIST ThermoML archive (doi:10.1021/je030136n).

Test: xn = mol fraction of the nth substance listed
Settings: Liquid, Pulse-echo method

CCCCCCC [heptane] + CCCO
Settings | speed of sound [m/s]
313.15 K, 100 kPa, x2 = 0.1008 | 1061
313.15 K, 100 kPa, x2 = 0.4992 | 1074.8
313.15 K, 30400 kPa, x2 = 0.1008 | 1267.9
313.15 K, 45590 kPa, x2 = 0.4992 | 1349.9
313.15 K, 60790 kPa, x2 = 0.3008 | 1416.4
313.15 K, 75990 kPa, x2 = 0.4992 | 1481.4
313.15 K, 75990 kPa, x2 = 0.7016 | 1486.3
313.15 K, 91190 kPa, x2 = 0.3008 | 1539.3
313.15 K, 91190 kPa, x2 = 0.4992 | 1539.3
313.15 K, 101320 kPa, x2 = 0.4992 | 1575.5
313.15 K, 111450 kPa, x2 = 0.3008 | 1611.5
313.15 K, 121580 kPa, x2 = 0.3008 | 1645.1
313.16 K, 30400 kPa, x2 = 0.7986 | 1293.2
313.16 K, 91190 kPa, x2 = 0.1008 | 1543.3
313.16 K, 101320 kPa, x2 = 0.3008 | 1576.2
313.16 K, 121580 kPa, x2 = 0.4992 | 1643.3
313.17 K, 100 kPa, x2 = 0.3008 | 1065
313.17 K, 30400 kPa, x2 = 0.3008 | 1268.1
313.17 K, 75990 kPa, x2 = 0.3008 | 1480.3
313.17 K, 111450 kPa, x2 = 0.4992 | 1610.1
313.17 K, 111450 kPa, x2 = 0.6027 | 1610
313.17 K, 121580 kPa, x2 = 0.6027 | 1642.9
313.19 K, 101320 kPa, x2 = 0.1008 | 1580.6
313.19 K, 111450 kPa, x2 = 0.1008 | 1616.3
313.19 K, 121580 kPa, x2 = 0.1008 | 1649.7
313.2 K, 111450 kPa, x2 = 0 | 1622
313.2 K, 111450 kPa, x2 = 0.7016 | 1611.6
313.21 K, 101320 kPa, x2 = 0 | 1586.2
313.22 K, 45590 kPa, x2 = 0.7016 | 1358.4
313.22 K, 121580 kPa, x2 = 0.7016 | 1643.9
313.23 K, 30400 kPa, x2 = 0.7016 | 1284.3
313.23 K, 60790 kPa, x2 = 0.7016 | 1425.1
313.24 K, 100 kPa, x2 = 0.7016 | 1095.2
318.08 K, 100 kPa, x2 = 0.7986 | 1090.8
318.09 K, 75990 kPa, x2 = 0 | 1475.5
318.09 K, 121580 kPa, x2 = 0.7016 | 1632.8
318.11 K, 101320 kPa, x2 = 0.7986 | 1569.1
318.12 K, 45590 kPa, x2 = 0.7986 | 1351.4
318.12 K, 60790 kPa, x2 = 0.4992 | 1404.4
318.13 K, 100 kPa, x2 = 0.4992 | 1054.3
318.13 K, 30400 kPa, x2 = 0.7986 | 1277.9
318.13 K, 45590 kPa, x2 = 0.4992 | 1334.8
318.13 K, 111450 kPa, x2 = 0.7986 | 1602.7
318.13 K, 121580 kPa, x2 = 0.4992 | 1631.5
318.14 K, 100 kPa, x2 = 0.7016 | 1076.2
318.14 K, 30400 kPa, x2 = 0.4992 | 1256.9
318.14 K, 75990 kPa, x2 = 0.7986 | 1478
318.14 K, 121580 kPa, x2 = 0.7986 | 1634.8
318.15 K, 30400 kPa, x2 = 0.7016 | 1268.9
318.15 K, 45590 kPa, x2 = 0.7016 | 1344.1
318.15 K, 60790 kPa, x2 = 0.6027 | 1406.9
318.15 K, 60790 kPa, x2 = 0.7016 | 1411.6
318.15 K, 60790 kPa, x2 = 0.7986 | 1417.5
318.15 K, 75990 kPa, x2 = 0.1008 | 1469.4
318.15 K, 91190 kPa, x2 = 0 | 1535.7
318.15 K, 111450 kPa, x2 = 0.4992 | 1598
318.16 K, 45590 kPa, x2 = 0.6027 | 1338.2
318.16 K, 91190 kPa, x2 = 0.7016 | 1530.2
318.16 K, 91190 kPa, x2 = 0.7986 | 1533.9
318.16 K, 101320 kPa, x2 = 0.4992 | 1563
318.16 K, 101320 kPa, x2 = 0.7016 | 1565.9
318.17 K, 45590 kPa, x2 = 0 | 1337.4
318.17 K, 60790 kPa, x2 = 0 | 1409.6
318.17 K, 60790 kPa, x2 = 0.1008 | 1403.9
318.17 K, 75990 kPa, x2 = 0.7016 | 1473.2
318.17 K, 91190 kPa, x2 = 0.3008 | 1526.1
318.17 K, 91190 kPa, x2 = 0.4992 | 1526.3
318.17 K, 101320 kPa, x2 = 0.1008 | 1567.7
318.17 K, 111450 kPa, x2 = 0.1008 | 1603.7
318.17 K, 111450 kPa, x2 = 0.3008 | 1599
318.17 K, 111450 kPa, x2 = 0.7016 | 1600
318.17 K, 121580 kPa, x2 = 0 | 1644.3
318.17 K, 121580 kPa, x2 = 0.1008 | 1637
318.17 K, 121580 kPa, x2 = 0.3008 | 1633
318.18 K, 100 kPa, x2 = 0 | 1044.5
318.18 K, 100 kPa, x2 = 0.1008 | 1039.7
318.18 K, 15200 kPa, x2 = 0 | 1163.4
318.18 K, 15200 kPa, x2 = 0.1008 | 1157.8
318.18 K, 30400 kPa, x2 = 0 | 1256.5
318.18 K, 75990 kPa, x2 = 0.3008 | 1466.5
318.18 K, 75990 kPa, x2 = 0.4992 | 1467.8
318.18 K, 101320 kPa, x2 = 0 | 1573.6
318.18 K, 101320 kPa, x2 = 0.3008 | 1563.3
318.18 K, 111450 kPa, x2 = 0 | 1609.8
318.18 K, 121580 kPa, x2 = 0.6027 | 1631.3
318.19 K, 30400 kPa, x2 = 0.3008 | 1251.4
318.19 K, 45590 kPa, x2 = 0.1008 | 1331.6
318.19 K, 45590 kPa, x2 = 0.3008 | 1330.8
318.19 K, 60790 kPa, x2 = 0.3008 | 1401.9
318.2 K, 100 kPa, x2 = 0.6027 | 1063.5
318.2 K, 30400 kPa, x2 = 0.1008 | 1250.7
318.2 K, 101320 kPa, x2 = 0.6027 | 1563.5
318.21 K, 100 kPa, x2 = 0.3008 | 1043.8
318.21 K, 91190 kPa, x2 = 0.6027 | 1527.2
318.23 K, 30400 kPa, x2 = 0.6027 | 1261.4
318.23 K, 111450 kPa, x2 = 0.6027 | 1598
318.27 K, 75990 kPa, x2 = 0.6027 | 1469.2
